Details: Liquid

CO [methanol]
Details	vapor or sublimation pressure [kPa]
298.15 K	16.97
303.15 K	21.88
308.15 K	27.96
313.15 K	35.44
318.15 K	44.54
323.15 K	55.58

From the NIST ThermoML archive (doi:10.1016/j.jct.2005.03.004)
